{"source": "PubChem BioAssay AID2060895", "about": "(Molecular Pharmacology Branch, DTP, NCI, 2025)", "test_system": "PDC 899932-113-R3-J6 complex spheroid viability", "assay": "Anticancer human tumor 899932-113-R3-J6-PDC patient-derived melanoma cell line growth inhibition [RAS]", "conditions": "for IC50: curve of first compound; for viability, T/C: stronger effect = lower value", "outline": "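Multi-cell-type spheroids: tumor cells plus HUVEC endothelial cells and mesenchymal stem cells. RAS-pathway inhibitors were combined with targeted agents, each dosed in half-log steps down from clinical Cmax, or from 10 microM when Cmax was unknown.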", "data": [{"compound": "CCc1c2c(nc3ccc(O)cc13)-c1cc3c(c(=O)n1C2)COC(=O)[C@]3(O)CC", "note": "+ C#Cc1c(F)ccc2cc(O)cc(-c3ncc4c(N5CC6CCC(C5)N6)nc(OCC56CCCN5CC(F)C6)nc4c3F)c12;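 for viability, T/C: spheroids exposed to agents for seven days before readout; 100% = DMSO vehicle control wells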", "values": [{"measurement": "IC50", "setting": "second compound 0.0316 µM", "value": 11.8, "unit": "nM"}, {"measurement": "IC50", "setting": "second compound 0.1 µM", "value": 20.8, "unit": "nM"}, {"measurement": "IC50", "setting": "second compound 0.316 µM", "value": 36.6, "unit": "nM"}, {"measurement": "IC50", "setting": "second compound 1 µM", "value": 37.1, "unit": "nM"}, {"measurement": "IC50", "setting": "second compound 3.16 µM", "value": 33.1, "unit": "nM"}, {"measurement": "IC50", "setting": "second compound 10 µM", "value": 32.2, "unit": "nM"}, {"measurement": "viability, T/C", "setting": "second compound 0.0316 µM, first compound 0.000949 µM", "value": 108, "unit": "%"}, {"measurement": "viability, T/C", "setting": "second compound 0.0316 µM, first compound 0.003 µM", "value": 63.5, "unit": "%"}, {"measurement": "viability, T/C", "setting": "second compound 0.0316 µM, first compound 0.00949 µM", "value": 56.8, "unit": "%"}, {"measurement": "viability, T/C", "setting": "second compound 0.0316 µM, first compound 0.03 µM", "value": 45.1, "unit": "%"}, {"measurement": "viability, T/C", "setting": "second compound 0.0316 µM, first compound 0.0949 µM", "value": 41.5, "unit": "%"}, {"measurement": "viability, T/C", "setting": "second compound 0.0316 µM, first compound 0.3 µM", "value": 34.2, "unit": "%"}, {"measurement": "viability, T/C", "setting": "second compound 0.1 µM, first compound 0.000949 µM", "value": 85.7, "unit": "%"}, {"measurement": "viability, T/C", "setting": "second compound 0.1 µM, first compound 0.003 µM", "value": 69.6, "unit": "%"}, {"measurement": "viability, T/C", "setting": "second compound 0.1 µM, first compound 0.00949 µM", "value": 50.6, "unit": "%"}, {"measurement": "viability, T/C", "setting": "second compound 0.1 µM, first compound 0.03 µM", "value": 50.2, "unit": "%"}, {"measurement": "viability, T/C", "setting": "second compound 0.1 µM, first compound 0.0949 µM", "value": 44.5, "unit": "%"}, {"measurement": "viability, T/C", "setting": "second compound 0.1 µM, first compound 0.3 µM", "value": 33.2, "unit": "%"}, {"measurement": "viability, T/C", "setting": "second compound 0.316 µM, first compound 0.000949 µM", "value": 81.2, "unit": "%"}, {"measurement": "viability, T/C", "setting": "second compound 0.316 µM, first compound 0.003 µM", "value": 74.3, "unit": "%"}, {"measurement": "viability, T/C", "setting": "second compound 0.316 µM, first compound 0.00949 µM", "value": 54, "unit": "%"}, {"measurement": "viability, T/C", "setting": "second compound 0.316 µM, first compound 0.03 µM", "value": 54, "unit": "%"}, {"measurement": "viability, T/C", "setting": "second compound 0.316 µM, first compound 0.0949 µM", "value": 42.6, "unit": "%"}, {"measurement": "viability, T/C", "setting": "second compound 0.316 µM, first compound 0.3 µM", "value": 35.2, "unit": "%"}, {"measurement": "viability, T/C", "setting": "second compound 1 µM, first compound 0.000949 µM", "value": 91.7, "unit": "%"}, {"measurement": "viability, T/C", "setting": "second compound 1 µM, first compound 0.003 µM", "value": 74, "unit": "%"}, {"measurement": "viability, T/C", "setting": "second compound 1 µM, first compound 0.00949 µM", "value": 63, "unit": "%"}, {"measurement": "viability, T/C", "setting": "second compound 1 µM, first compound 0.03 µM", "value": 52.2, "unit": "%"}, {"measurement": "viability, T/C", "setting": "second compound 1 µM, first compound 0.0949 µM", "value": 43.3, "unit": "%"}, {"measurement": "viability, T/C", "setting": "second compound 1 µM, first compound 0.3 µM", "value": 32.2, "unit": "%"}, {"measurement": "viability, T/C", "setting": "second compound 3.16 µM, first compound 0.000949 µM", "value": 99, "unit": "%"}, {"measurement": "viability, T/C", "setting": "second compound 3.16 µM, first compound 0.003 µM", "value": 74.5, "unit": "%"}, {"measurement": "viability, T/C", "setting": "second compound 3.16 µM, first compound 0.00949 µM", "value": 60, "unit": "%"}, {"measurement": "viability, T/C", "setting": "second compound 3.16 µM, first compound 0.03 µM", "value": 54.2, "unit": "%"}, {"measurement": "viability, T/C", "setting": "second compound 3.16 µM, first compound 0.0949 µM", "value": 44.9, "unit": "%"}, {"measurement": "viability, T/C", "setting": "second compound 3.16 µM, first compound 0.3 µM", "value": 33.5, "unit": "%"}, {"measurement": "viability, T/C", "setting": "second compound 10 µM, first compound 0.000949 µM", "value": 101, "unit": "%"}, {"measurement": "viability, T/C", "setting": "second compound 10 µM, first compound 0.003 µM", "value": 71, "unit": "%"}, {"measurement": "viability, T/C", "setting": "second compound 10 µM, first compound 0.00949 µM", "value": 66.8, "unit": "%"}, {"measurement": "viability, T/C", "setting": "second compound 10 µM, first compound 0.03 µM", "value": 47.3, "unit": "%"}, {"measurement": "viability, T/C", "setting": "second compound 10 µM, first compound 0.0949 µM", "value": 47.9, "unit": "%"}, {"measurement": "viability, T/C", "setting": "second compound 10 µM, first compound 0.3 µM", "value": 33.9, "unit": "%"}]}]}
